Measurements as given in ChEMBL document CHEMBL5726493, “Compositions and methods of modulating short-chain dehydrogenase activity” (2017).

Biological target: T1, 15-hydroxyprostaglandin dehydrogenase [NAD(+)] (Homo sapiens, UniProt P15428)
T1 sequence (P15428 whole entry): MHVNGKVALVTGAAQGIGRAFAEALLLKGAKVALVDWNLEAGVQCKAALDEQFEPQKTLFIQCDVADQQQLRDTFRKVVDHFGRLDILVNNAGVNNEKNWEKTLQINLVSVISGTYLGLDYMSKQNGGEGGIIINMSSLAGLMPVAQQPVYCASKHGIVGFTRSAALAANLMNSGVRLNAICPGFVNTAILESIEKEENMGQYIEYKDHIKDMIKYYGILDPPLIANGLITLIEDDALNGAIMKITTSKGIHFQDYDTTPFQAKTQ
Assay: In Vitro Assay: Each compound for inhibiting enzymatic activity of recombinant 15-PGDH in an in vitro assay.

Row | SMILES | IC50 [nM]
1 | CCCC[S+]([O-])c1sc2nc(-c3nccs3)cc(-c3cccc(C(=O)NCCN(C)C)c3)c2c1N (configuration not stated) | 19.3
2 | CCCC[S+]([O-])c1sc2nc(-c3nccs3)cc(-c3cccc(C(=O)N4CCN(C)CC4)c3)c2c1N (configuration not stated) | 36.4
3 | CCCC[S+]([O-])c1sc2nc(-c3nccs3)cc(-c3cccc(C(=O)O)c3)c2c1N (configuration not stated) | 20.2
4 | CCCC[S+]([O-])c1sc2nc(-c3nccs3)cc(-c3ccc(OCC(=O)O)cc3)c2c1N (configuration not stated) | 2.71

Next, values leading:

Row | IC50 [nM] | SMILES
5 | 2.5 | C=CCNC(=O)c1cccc(-c2cc(-c3nccs3)nc3sc([S+]([O-])CCCC)c(N)c23)c1 (configuration not stated)
6 | 8.53 | CCCC[S+]([O-])c1sc2nc(-c3nccs3)cc(-c3ccc(OCC(=O)OC)cc3)c2c1N (configuration not stated)
7 | 5.7 | CCCC[S+]([O-])c1sc2nc(-c3nccs3)cc(-c3ccc(CN(C)C)cc3)c2c1N (configuration not stated)
